Measured values reported in ChEMBL document CHEMBL3507680, “University of Dundee, Gates Library screen for HepG2 cell viability”.

Experiment: Human HepG2 cell viability assay in 384 well format
Type: toxicity, cell-based
Design: dose 125 nL, time 70.5 hour; cytotoxicity at 70.5 h: concentration not given beside the values
Conditions: HepG2 cells, read-out: Inhibition

| SMILES | cytotoxicity at 70.5 h |
| --- | --- |
| CC(C)(C)OC(=O)N[C@@H]1C[C@@H](O)CN(C(=O)c2ccc(F)cc2)C[C@H]1O | -2.5% |
| CNC(=O)C1(CCCc2ccccn2)CN(Cc2nccn2C)C1 | -9.75% |
| Cn1ccnc1CN1CCC(CCCc2ccccn2)(C(N)=O)CC1 | -13.4% |
| Cc1cccc(CN2CCCC[C@H]3CN(c4ncccn4)C[C@H]32)c1 | 5.5% |
| O=S(=O)(c1cn[nH]c1)N1C[C@@H](O)[C@H](N2CCc3ccccc3C2)C1 | -7.48% |
| Cc1ncsc1CN1CCOC(C)(C(=O)N(C)C)C1 (configuration not stated) | 20% |
| CNc1cc(C2CCCN2C(=O)CCc2cnn(C)c2C)ccn1 (configuration not stated) | -8.49% |
| CC(C)(C)CN1CCCC(c2nccnc2Nc2cnccn2)C1 (configuration not stated) | -12.3% |
| c1cnc(CC2CCN(c3cnccn3)CC2)cn1 | -7.05% |
| NC(=O)c1cnc(NC2CC2)nc1CCNC(=O)CC1CCCC1 | -14.3% |
| CN1CCC(c2cccc(C(=O)N(C)C)n2)CC1 | -7.65% |
| O=C(NC[C@H]1CC[C@H](c2ccnc3ncnn32)CC1)c1ccccn1 | -6.58% |
| N#Cc1cccc(CNc2ccc(F)cc2OCCO)c1 | -6.47% |
| Cn1cc(C(=O)NCCc2csc(-c3ccccc3)n2)ccc1=O | -2.1% |
| Cc1cc(OCC(N)=O)ccc1NC(=O)C(C)Cc1ccccc1F (configuration not stated) | -2.1% |
| Cc1ccc(C(=O)NS(=O)(=O)Cc2ccccc2)cc1S(C)(=O)=O | -2.97% |
| CS(=O)(=O)c1cc(NC(=O)COc2ccccc2F)cc(C(=O)O)c1 | -2.84% |
| Cc1ccnc(N2CCCC(c3nncn3C3CC3)C2)n1 (configuration not stated) | -2.88% |
| Cc1cccn2cc(CC(=O)N(CCN(C)C)CC3CCCO3)nc12 (configuration not stated) | 17.3% |
| CC(c1ccncc1)N(C)S(C)(=O)=O (configuration not stated) | -5.4% |
| CSCC(C)NS(=O)(=O)c1ccc(C)c(N(C)C)c1 (configuration not stated) | -4.35% |
| Cc1ccc(C(O)CN(C)Cc2cnn(C)c2)cc1C (configuration not stated) | -1.99% |
| CC(C)(C)c1ncc(C(=O)NCc2cccc(C(=O)N3CCCC3)c2)s1 | -1.76% |
| Cc1ccc(-c2nnc(CCC(=O)N3CCCC3c3ccc[nH]3)o2)cc1 (configuration not stated) | -2% |

| SMILES | cytotoxicity at 70.5 h |
| --- | --- |
| COc1ccc(CNC(=O)Nc2ccc(S(=O)(=O)C(F)F)cc2)cc1 | 8.9% |
| COc1ccc(Br)cc1NCC(=O)NC(C)(C#N)C1CC1 (configuration not stated) | 2.31% |
| Cc1cccc(C(=O)N2CCCC2)c1NCC(=O)NC(C)(C#N)C1CC1 (configuration not stated) | 28.8% |
| Cc1cccc(C(=O)N2CCCC2)c1NCC(=O)NC1(C#N)CCCC1 | -4.19% |
| O=C(COc1ccc2c(c1)CCCC2=O)NCc1ccco1 | -4.86% |
| CC(C)(Oc1ccc2c(c1)CCCC2=O)C(=O)NCc1ccco1 | -2.8% |
| CCCS(=O)(=O)C(C)C(=O)Nc1ccc2oc(C3CC3)nc2c1 (configuration not stated) | -2.1% |
| Cc1c(C(=O)NCC(F)(F)F)nnn1-c1ccccc1Cl | -3.49% |
| COc1cccc(C(C)N2CCN(S(C)(=O)=O)CC2)c1 (configuration not stated) | 28.7% |
| CCn1ccnc1CN1CCCN(C(=O)c2ccc(C#N)cc2)CC1 | 0.738% |
| Cc1noc(OCc2csc(C)n2)n1 | -3.72% |
| CC(C)S(=O)(=O)C(C)C(=O)Nc1ccc2oc(C3CC3)nc2c1 (configuration not stated) | -2.28% |
| COc1ccncc1NC(=O)c1[nH]nc(C(C)C)c1Br | -3.93% |
| O=C1NCCCCC1SCc1coc(-c2cccc(F)c2)n1 (configuration not stated) | -5.82% |
| COc1ccc2nc(C3CC3)cc(C(=O)NCC(=O)N(C)C)c2c1 | -2.45% |
| Cc1nc(C2CCN(S(=O)(=O)c3ccc4c(c3)CCC4)CC2)n[nH]1 | -2.6% |
| Cn1ccc(CNC(=O)Nc2ccc(S(=O)(=O)C(F)F)cc2)c1 | -2.09% |
| CC(=O)NC(Cc1c[nH]c2cc(F)ccc12)C(=O)Nc1nonc1C (configuration not stated) | 22% |
| CC(C#N)CNC(=O)Nc1ccc(-c2cc[nH]n2)cc1 (configuration not stated) | -1.44% |
| COc1ccc2nc(C3CC3)cc(C(=O)NCCc3nnc[nH]3)c2c1 | -3.73% |
| CC(C)c1cc(C(=O)N(c2ccc(F)cn2)C2CCOCC2)on1 | 1.54% |
| CC(C#N)CNC(=O)Nc1ccc(-c2ccc[nH]2)cc1 (configuration not stated) | -0.22% |
| CS(=O)(=O)c1ccc(NCc2ccccc2)cn1 | -2.92% |
| CC(C)(Oc1ccc(F)cc1)C(=O)NCc1ccco1 | -2.11% |

| SMILES | cytotoxicity at 70.5 h |
| --- | --- |
| CC(NC(=O)N1CCC2(C1)OCCO2)c1ccc(F)cc1Cl (configuration not stated) | 4.97% |
| Cc1nc(COc2nc(C(C)C)no2)cs1 | -5.35% |
| O=C(c1cccc(O)c1)N1CCN(Cc2nnc(C3CCC3)o2)CC1 | 23.6% |
| Cc1nc(C)n(CC2CCCCN2c2ccnc(-c3ccccc3)n2)n1 (configuration not stated) | 5.38% |
| CN(C)CCN(C)S(=O)(=O)CC1CCOCC1 | -7.41% |
| CC(OCC1CC1)C(=O)NCc1cccc(CN2CCCC2=O)c1 (configuration not stated) | 1.05% |
| O=C(COC1CCCCC1)Nc1ccn(Cc2ccccn2)n1 | -5.54% |
| CC(C)(C)c1ccc2c(c1)CCN2C(=O)c1ccc(=O)[nH]n1 | -5.53% |
| CC(C)(C)n1c(NC(=O)CNC(=O)NC2CC2)nc2ccccc21 | 1.24% |
| CN(CCOc1ccccc1F)S(=O)(=O)CC1CCOCC1 | -8.77% |
| NC(=O)CCCNC(=O)CCc1cc(Br)cs1 | -5.18% |
| O=C(C1CCOc2ccccc21)N1CCOc2cccc(F)c21 (configuration not stated) | 4.13% |
| CC(=O)N1CCN(c2ccccc2CNc2cc(F)cc(F)c2)CC1 | 13.8% |
| O=S(=O)(c1ccc2c(c1)CCC2)N1CCCC(Cn2cncn2)C1 (configuration not stated) | 0.224% |
| O=C(NCc1ccc(C(=O)O)o1)c1ccc(F)cc1 | 0.996% |
| O=S(=O)(c1cccc(Cl)c1)N1CCCC(Cn2cncn2)C1 (configuration not stated) | -4.36% |
| Cn1nc2c(cc1=O)CN(CC1CCCCO1)CC2 (configuration not stated) | -2.64% |
| CCOC(C)C(=O)NCc1cccc(CN2CCCCCC2)c1 (configuration not stated) | -2.85% |
| O=C(C1CCCC1)N1CCOc2cccc(F)c21 | -7.17% |
| COc1ccc(NCc2ccccc2N2CCN(C(C)=O)CC2)cn1 | 0.712% |
| CC(=O)N1CCN(c2ccccc2CNc2ccc(C)cn2)CC1 | -3.33% |
| CCN(Cc1c(F)cccc1F)C(=O)c1ccncc1O | -7.76% |
| CCC(C(=O)NCCc1ccn(-c2ccccc2)n1)N1CCCC1=O (configuration not stated) | -5.95% |
| COCCCS(=O)(=O)N1CCN(Cc2cccn2C)CC1 | 43.4% |

| SMILES | cytotoxicity at 70.5 h |
| --- | --- |
| CCn1cnnc1CNC(=O)c1ccc(Br)cc1F | 22.3% |
| N#Cc1ncn(CC(=O)N2CCCC2c2cccs2)n1 (configuration not stated) | 22.9% |
| CN(CC(=O)NC(C)(C)C)Cc1cccc2c1OCCO2 | 33.4% |
| CCC(NC(=O)NC1CCN(S(C)(=O)=O)CC1)c1cccs1 (configuration not stated) | -11.5% |
| O=C(C1CC1)N1CCCCCC1C1CCN(c2ncccn2)CC1 (configuration not stated) | -9.64% |
| NC(=O)N1CCCCCC1C1CCN(c2nccc(C(F)(F)F)n2)CC1 (configuration not stated) | -13.9% |
| CCc1nnc2n1CCN(c1nc(C)cc(N(C)C)n1)C2 | -13.4% |
| O=C(COc1ccc(Cl)cc1)NCc1nncn1C1CC1 | -14.1% |
| CCn1cnnc1CCNC(=O)c1ccc(Br)cc1F | -4.19% |
| COCc1c(Br)cccc1NC(=O)N(C)CCO | -12.1% |
| CS(=O)(=O)NCCN1CCSCC1c1ccc(Cl)cc1 (configuration not stated) | -2.66% |
| NC(=O)N1CCCC(C(=O)NCCOc2ccc(F)cc2F)C1 (configuration not stated) | 0.645% |
| Cc1noc(C)c1NC(=O)NC1CCN(C(=O)OC(C)(C)C)CC1 | -9.26% |
| NC(=O)C1CCCN1CCCc1ccc(Cl)cc1 (configuration not stated) | -5.15% |
| O=C(NCC1(O)CCOCC1)c1ccn(-c2ccccc2F)n1 | -9.56% |
| O=C(NCC1(O)CCSC1)c1ccn(-c2ccccc2F)n1 (configuration not stated) | -15.6% |
| CNC(=O)c1cccc(NCC(=O)Nc2cc(C)nn2C)c1C | -14% |
| CCNC(=O)N1CCC(=Cc2ccccc2)CC1 | 1.05% |
| Cc1oc(CNC(=O)Cc2cccc(OC(F)F)c2)cc1C(=O)O | -7.31% |
| C/C=C(/C)C(=O)NS(=O)(=O)c1ccc(C(F)(F)F)cc1 | 0.976% |
| Cc1ccc(CNC(=O)NCC(=O)N2CCCC2)c(N2CCCC2)c1 | 4.74% |
| O=C(OCc1ccccc1)C1CCCN1Cc1nc(C2CC2)no1 (configuration not stated) | -17.4% |
| Cc1noc(C)c1C(C)NC(=O)N1CCN(c2cccs2)CC1 (configuration not stated) | 6.76% |
| O=C(CN1CCN(c2ncnc3cccc(F)c23)CC1)N1CCCC1 | -9.51% |

| SMILES | cytotoxicity at 70.5 h |
| --- | --- |
| CCc1noc(CN2CCCC2C(=O)OCc2ccccc2)n1 (configuration not stated) | -16.5% |
| CC(O)(CNc1ccc(Cl)c(C#N)n1)c1ccsc1 (configuration not stated) | 10.6% |
| Cn1cc(C(C)(O)CNc2ccc(Cl)c(C#N)n2)cn1 (configuration not stated) | 5.37% |
| CC(C)CCC(=O)N1CCN(C(C)c2nnc(CC(C)C)o2)CC1 (configuration not stated) | 23.3% |
| O=C(c1sccc1-n1cnnn1)N1CCCCC1 | -6.17% |
| CC(Nc1ccc(Br)cc1)c1nc(C2CC2)no1 (configuration not stated) | -1.22% |
| CC1CCN(C(=O)c2sccc2-n2cnnn2)CC1 | -4.67% |
| CC(C(=O)NCc1ccco1)N1CCN(Cc2nccn2C)CC1 (configuration not stated) | -5.54% |
| O=C1CCN(C(=O)NCC(c2ccccc2)c2ccccc2)CCN1 | -2.48% |
| CCC(=O)NCC(=O)NC(C)c1sc(-c2ccccc2F)nc1C (configuration not stated) | 10.3% |
| CCC(=O)NCC1(O)CCC(C(C)(C)C)CC1 (configuration not stated) | -4.59% |
| CCC(=O)NCC(=O)NCC1(O)CCC(C(C)(C)C)CC1 (configuration not stated) | -7.33% |
| CC(C)n1cnnc1CNC(=O)c1cnn(Cc2ccccc2)c1 | -2.61% |
| Cc1cccc(CNc2ccc(C(=O)N3CCC(CO)CC3)cc2)c1 | -5.19% |
| CCNC(=O)CCC(=O)NCC1(O)CCC(C(C)(C)C)CC1 (configuration not stated) | -2.55% |
| CCN1CC(COC(=O)c2cccc(Br)c2)CC1=O (configuration not stated) | -7.36% |
| O=C1CC2(CCSC2)C(=O)N1Cc1ncc(-c2cccc(F)c2)o1 (configuration not stated) | -1.19% |
| c1cc(CC2CCCNC2)nc(NCCc2cnccn2)c1 (configuration not stated) | -11.1% |
| CCc1nccn1-c1cncc(C2CCCN2)n1 (configuration not stated) | -8.79% |
| COc1cccc(Nc2nc(-c3ccncc3)nc3c2CNCC3)c1 | 24.2% |
| CC1(C)CN(C(CNC2=NCCN2)c2ccc(Cl)cc2)CCO1 (configuration not stated) | -5.1% |
